Measured values taken from EP1984353B1, “AURORA KINASE MODULATORS AND METHOD OF USE” (Amgen, Inc, priority 2006, dated 2007).
Like-named read-outs stand apart in the source and are kept apart here.

What was measured:
AuroraA-TPX2 = molecular target: T1, AuroraA-TPX2 (Homo sapiens, UniProt O14965); assay: AuroraA-TPX2 Homogeneous Time Resolved Fluorescent (HTRF) kinase assay; format: biochemical; details: average, read-out: AurA/TP X2_ IC50_IP (Avg)
T1 construct: 20 µL of AuroraA-TPX2 KD GST; GST
T1 sequence (O14965 133-383 limits assumed): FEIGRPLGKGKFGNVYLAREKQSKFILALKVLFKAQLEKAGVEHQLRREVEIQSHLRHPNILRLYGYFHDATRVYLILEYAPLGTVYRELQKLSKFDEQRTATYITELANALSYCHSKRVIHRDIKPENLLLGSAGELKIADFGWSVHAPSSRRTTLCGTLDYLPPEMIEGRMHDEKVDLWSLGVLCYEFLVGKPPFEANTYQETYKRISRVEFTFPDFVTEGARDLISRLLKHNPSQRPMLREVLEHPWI
T1 sequence (Q9ULW0 1-43 partner limits assumed): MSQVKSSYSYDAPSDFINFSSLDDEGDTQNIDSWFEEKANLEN
In short: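 HTRF read-out: europium anti-phosphoPLK antibody (0.02 nM) plus streptavidin-APC detect phosphorylated biotin-PLK after EDTA stop and overnight equilibration. Kinase step runs about 120 min with Aurora-A/TPX2, ATP and roughly 1 µM PLK peptide at pH 7.5 HEPES buffer with Mg2+ and DTT.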

AuroraB = molecular target: T2, AuroraB (Homo sapiens, UniProt Q96GD4); assay: AuroraB Homogeneous Time Resolved Fluorescent (HTRF) kinase assay; format: biochemical; details: average, read-out: AurB_ _IC50_IP (Avg)
T2 construct: 20 µL of AuroraB FL His; His
In short: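 HTRF read-out: after EDTA stop and ~60 min with europium anti-phospho-H3 antibody and streptavidin-APC, 655/615 nm ratio reports phosphorylation. Reaction: 400 pM AuroraB FL His, 23 µM ATP (at Km(app)), 0.1 µM biotin-Histone H3 peptide, 50 mM HEPES pH 7.5, MgCl/MnCl, ~90 min.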

[1] = tested on: phosphorylation of Histone H3; assay: HeLa cell 1-hour phospho-histone assay; format: cell-based; details: Homo sapiens, HeLa, 1 h, HeLa cells, 1 hour, average, read-out: pHH3 EC50_IP (Avg)
Description: HeLa cell 1-hour phospho-histone assay
The purpose of this assay is to test the inhibitory effect of Aurora compounds with respect to phosphorylation of Histone H3 in the cellular context. HeLa cells (9x10^4/well) are plated in black 96-well flat-bottom tissue culture plates and incubated for 40 hours prior to compound addition. Compounds are serially diluted in DMSO, followed by dilution into MEM containing […] HEPES; 10ul/well of diluted compounds are added to cells (0.5% DMSO final). Cells are incubated for 1 hour at 37 °C in 5% CO2. Cells are then fixed with 3.7% formaldehyde for 10 minutes, washed with wash buffer (1% goat serum and 0.1% Tween 20 in PBS), then permeabilized with 0.5% Triton X in PBS for 15 minutes. After washing with wash buffer, cells are incubated with primary antibody (Upstate #06-507 anti-phospho-histone (Ser 10) antibody (pHH3) for 1 hour at 10ug/ml. After 2 washes with wash buffer, cells are incubated with secondary antibody (Molecular Probes #A11034 goat anti-rabbit Alexa-488 for 1 hour at 1ug/ml + Hoechst 33342 nuclear dye at 1ug/ml (Molecular Probes). Cells are washed 2 times with wash buffer, and buffer replaced with PBS. Plates are scanned on the Cellomics Array Scan (6 fields, ~2000 cells/well) and % of cells that are pHH3 positive were calculated using the Cellomics algorithm.

[2] = given as numbers, unit inferred

T2 sequence (Q96GD4 whole entry): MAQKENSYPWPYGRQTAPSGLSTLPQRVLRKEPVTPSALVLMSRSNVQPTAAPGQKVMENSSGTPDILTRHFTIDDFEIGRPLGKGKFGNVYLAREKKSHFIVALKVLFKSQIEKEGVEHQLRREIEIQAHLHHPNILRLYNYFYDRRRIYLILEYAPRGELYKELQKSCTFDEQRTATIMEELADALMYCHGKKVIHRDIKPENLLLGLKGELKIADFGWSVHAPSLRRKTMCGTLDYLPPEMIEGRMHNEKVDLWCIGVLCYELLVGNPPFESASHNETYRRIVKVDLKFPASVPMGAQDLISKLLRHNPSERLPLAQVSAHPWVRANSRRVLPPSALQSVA

Question: Which results are given for `Nc1n[nH]cc1-c1cccnc1Oc1ccc(Nc2nnc(-c3ccccc3)c3ccsc23)cc1` [compound 304, N-(4-((3-(3-amino-1H-pyrazol-4-yl)-2-pyridinyl)oxy)phenyl)-4-phenylthieno[2,3-d]pyridazin-7-amine]?
Answer: IC50 (AuroraA-TPX2; [2]): 16.4 nM; IC50 (AuroraB; [2]): 68.7 nM; EC50 [1, 2]: 788 nM

Question: How did the IC50 (AuroraA-TPX2; given as class symbols) turn out when `Nc1n[nH]cc1-c1cccnc1Oc1ccc(Nc2nnc(-c3cccc(CO)c3)c3ccccc23)cc1` [compound 305, (3-(4-((4-((3-(3-amino-1H-pyrazol-4-yl)-2-pyridinyl)oxy)phenyl)amino)-1-phthalazinyl)phenyl)methanol] was run?
Answer: ≤ 100 nM

Question: And the IC50 (AuroraB; given as class symbols)?
Answer: ≤ 100 nM

Question: What about the EC50 ([1]; given as class symbols) of the same molecule?
Answer: 500 to 2500 nM

Question: How did the IC50 (AuroraA-TPX2; given as class symbols) turn out when `Nc1n[nH]cc1-c1cccnc1Oc1ccc(Nc2nnc(-c3ccc(Cl)cc3)c3ccccc23)cc1` [compound 306, N-(4-((3-(3-amino-1H-pyrazol-4-yl)-2-pyridinyl)oxy)phenyl)-4-(4-chlorophenyl)-1-phthalazinamine] was run?
Answer: ≤ 100 nM

Question: And the IC50 (AuroraB; given as class symbols)?
Answer: ≤ 100 nM

Question: What about the EC50 ([1]; given as class symbols) of the same molecule?
Answer: 100 to 500 nM

Question: Which IC50 (AuroraA-TPX2; given as class symbols) does the source give for `Cc1csc(-c2nnc(Nc3ccc(Oc4ncccc4-c4c[nH]nc4N)cc3)c3ccccc23)c1` [compound 307, N-(4-((3-(3-amino-1H-pyrazol-4-yl)-2-pyridinyl)oxy)phenyl)-4-(4-methyl-2-thienyl)-1-phthalazinamine] here?
Answer: ≤ 100 nM

Question: And the IC50 (AuroraB; given as class symbols)?
Answer: ≤ 100 nM

Question: What about the EC50 ([1]; given as class symbols) of the same molecule?
Answer: 100 to 500 nM

Question: How did the IC50 (AuroraA-TPX2; given as class symbols) turn out when `Nc1n[nH]cc1-c1cccnc1Oc1ccc(Nc2nnc(-c3ccccc3)c3c2CCCC3)cc1` [compound 308, N-(4-((3-(3-amino-1H-pyrazol-4-yl)-2-pyridinyl)oxy)phenyl)-4-phenyl-5,6,7,8-tetrahydro-1-phthalazinamine] was run?
Answer: ≤ 100 nM

Question: And the IC50 (AuroraB; given as class symbols)?
Answer: ≤ 100 nM

Question: What about the EC50 ([1]; given as class symbols) of the same molecule?
Answer: 500 to 2500 nM

Question: Which IC50 (AuroraA-TPX2; given as class symbols) does the source give for `Cc1csc(-c2nnc(Nc3ccc(Oc4ncccc4-c4c[nH]nc4N)cc3)c3ccccc23)n1` [compound 309, N-(4-((3-(3-amino-1H-pyrazol-4-yl)-2-pyridinyl)oxy)phenyl)-4-(4-methyl-1,3-thiazol-2-yl)-1-phthalazinamine] here?
Answer: ≤ 100 nM

Question: What about the IC50 (AuroraB; given as class symbols) of the same molecule?
Answer: ≤ 100 nM

Question: What about the EC50 ([1]; given as class symbols) of the same molecule?
Answer: 500 to 2500 nM

Question: What does the source list for `Cc1csc(-c2nnc(Nc3ccc(Oc4ncccc4-c4ccnc(N)n4)cc3)c3ccccc23)n1` [compound 330, N-(4-((3-(2-amino-4-pyrimidinyl)-2-pyridinyi)oxy)phenyl)-4-(4-methyl-1,3-thiazol-2-yl)-1-phthalazinamine]?
Answer: IC50 (AuroraA-TPX2; given as class symbols): ≤ 100 nM; IC50 (AuroraB; given as class symbols): ≤ 100 nM; EC50 ([1]; given as class symbols): ≤ 100 nM

Question: Which IC50 (AuroraA-TPX2; [2]) does the source give for `Cc1csc(-c2nnc(Nc3ccc(Oc4ncccc4-c4ccnc(N)n4)nc3)c3ccccc23)c1` [compound 332, N-(6-((3-(2-amino-4-pyrimidinyl)-2-pyridinyl)oxy)-3-pyridinyl)-4-(4-methyl-2-thienyl)-1-phthalazinamine] here?
Answer: 5.2 nM

Question: And the IC50 (AuroraB; [2])?
Answer: 1.6 nM

Question: What about the EC50 [1, 2] of the same molecule?
Answer: 3.3 nM

Question: Which IC50 (AuroraA-TPX2; given as class symbols) does the source give for `CN1CCN(CCCNc2nccc(-c3cccnc3Oc3ccc(Nc4nnc(-c5ccccc5)c5ccccc45)cc3)n2)CC1` [compound 333, N-(4-((3-(2-((3-(4-methyl-1-piperazinyl)propyl)amino)-4-pyrimidinyl)-2-pyridinyl)oxy)phenyl)-4-phenyl-1-phthalazinamine] here?
Answer: ≤ 100 nM

Question: What about the IC50 (AuroraB; given as class symbols) of the same molecule?
Answer: ≤ 100 nM

Question: And the EC50 ([1]; given as class symbols)?
Answer: ≤ 100 nM

Question: What does the source list for `Cc1cc(N2CCCCC2)nnc1Nc1ccc(Oc2ncccc2-c2ccnc(N)n2)cc1` [compound 334, N-(4-((3-(2-amino-4-pyrimidinyl)-2-pyridinyl)oxy)phenyl)-4-methyl-6-(1-piperidinyl)-3-pyridazinamine]?
Answer: IC50 (AuroraA-TPX2; given as class symbols): 100 to 500 nM; IC50 (AuroraB; given as class symbols): ≤ 100 nM; EC50 ([1]; given as class symbols): 500 to 2500 nM

Question: What does the source list for `c1ccc(-c2nnc(Nc3ccc(Oc4ncccc4-c4ccnc(NCC5CCNCC5)n4)cc3)c3ccccc23)cc1` [compound 335, 4-phenyl-N-(4-((3-(2-((4-piperidinylmethyl)amino)-4-pyrimidinyl)-2-pyridinyl)oxy)phenyl)-1-phthalazinamine]?
Answer: IC50 (AuroraA-TPX2; given as class symbols): 500 to 2500 nM; IC50 (AuroraB; given as class symbols): 100 to 500 nM; EC50 ([1]; given as class symbols): 500 to 2500 nM

Question: What does the source list for `CN(C)Cc1ccc(-c2nnc(Nc3ccc(Oc4ncccc4-c4ccnc(N)n4)cc3)c3ccccc23)cc1` [compound 336, N-(4-((3-(2-amino-4-pyrimidinyl)-2-pyridinyl)oxy)phenyl)-4-(4-((dimethylamino)methyl)phenyl)-1-phthalazinamine]?
Answer: IC50 (AuroraA-TPX2; given as class symbols): 500 to 2500 nM; IC50 (AuroraB; given as class symbols): 100 to 500 nM; EC50 ([1]; given as class symbols): 500 to 2500 nM

Question: Which IC50 (AuroraA-TPX2; given as class symbols) does the source give for `OCC(O)CNc1nccc(-c2cccnc2Oc2ccc(Nc3nnc(-c4ccccc4)c4ccccc34)cc2)n1` (stereo not drawn) [compound 337, 3-((4-(2-((4-((4-phenyl-1-phthalazinyl)amino)phenyl)oxy)-3-pyridinyl)-2-pyrimidinyl)amino)-1,2-propanediol] here?
Answer: ≤ 100 nM

Question: What about the IC50 (AuroraB; given as class symbols) of the same molecule?
Answer: ≤ 100 nM

Question: What about the EC50 ([1]; given as class symbols) of the same molecule?
Answer: 100 to 500 nM

Question: Which IC50 (AuroraA-TPX2; given as class symbols) does the source give for `CN(C)CCCCNc1nccc(-c2cccnc2Oc2ccc(Nc3nnc(-c4ccccc4)c4ccccc34)cc2)n1` [compound 338, N,N-dimethyl-N'-(4-(2-((4-((4-phenyl-1-phthalazinyl)amino)phenyl)oxy)-3-pyridinyl)-2-pyrimidinyl)-1,4-butanediamine] here?
Answer: ≤ 100 nM

Question: What about the IC50 (AuroraB; given as class symbols) of the same molecule?
Answer: ≤ 100 nM

Question: And the EC50 ([1]; given as class symbols)?
Answer: ≤ 100 nM

Question: `OCCCNc1nccc(-c2cccnc2Oc2ccc(Nc3nnc(-c4ccccc4)c4ccccc34)cc2)n1` [compound 339, 3-((4-(2-((4-((4-phenyl-1-phthalazinyl)amino)phenyl)oxy)-3-pyridinyl)-2-pyrimidinyl)amino)-1-propanol] was tested. Which IC50 (AuroraA-TPX2; given as class symbols) did it give?
Answer: ≤ 100 nM

Question: What about the IC50 (AuroraB; given as class symbols) of the same molecule?
Answer: ≤ 100 nM

Question: What about the EC50 ([1]; given as class symbols) of the same molecule?
Answer: 100 to 500 nM

Question: For `c1ccc(-c2nnc(Nc3ccc(Oc4ncccc4-c4ccnc(NCCCN5CCNCC5)n4)cc3)c3ccccc23)cc1` [compound 340, 4-phenyl-N-(4-((3-(2-((3-(1-piperazinyl)propyl)amino)-4-pyrimidinyl)-2-pyridinyl)oxy)phenyl)-1-phthalazinamine], which IC50 (AuroraA-TPX2; given as class symbols) is on record?
Answer: ≤ 100 nM

Question: What about the IC50 (AuroraB; given as class symbols) of the same molecule?
Answer: ≤ 100 nM

Question: What about the EC50 ([1]; given as class symbols) of the same molecule?
Answer: 100 to 500 nM

Question: Which IC50 (AuroraA-TPX2; given as class symbols) does the source give for `OCCN(CCO)CCCNc1nccc(-c2cccnc2Oc2ccc(Nc3nnc(-c4ccccc4)c4ccccc34)cc2)n1` [compound 341, 2,2'-((3-((4-(2-((4-((4-phenyl-1-phthalazinyl)amino)phenyl)oxy)-3-pyridinyl)-2-pyrimidinyl)amino)propyl)imino)diethanol] here?
Answer: 100 to 500 nM

Question: And the IC50 (AuroraB; given as class symbols)?
Answer: ≤ 100 nM

Question: What about the EC50 ([1]; given as class symbols) of the same molecule?
Answer: 100 to 500 nM

Question: Which results are given for `Nc1nccc(-c2cccnc2Oc2ccc(Nc3nnc(-c4cccc(CO)c4)c4ccccc34)cc2)n1` [compound 342, (3-(4-((4-((3-(2-amino-4-pyrimidinyl)-2-pyridinyl)oxy)phenyl)amino)-1-phthalazinyl)phenyl)methanol]?
Answer: IC50 (AuroraA-TPX2; given as class symbols): ≤ 100 nM; IC50 (AuroraB; given as class symbols): ≤ 100 nM; EC50 ([1]; given as class symbols): 100 to 500 nM

Question: What does the source list for `Nc1nccc(-c2cccnc2Oc2ccc(Nc3nnc(-c4cccc(O)c4)c4ccccc34)cc2)n1` [compound 343, 3-(4-((4-((3-(2-amino-4-pyrimidinyl)-2-pyridinyl)oxy)phenyl)amino)-1-phthalazinyl)phenol]?
Answer: IC50 (AuroraA-TPX2; given as class symbols): ≤ 100 nM; IC50 (AuroraB; given as class symbols): ≤ 100 nM; EC50 ([1]; given as class symbols): ≤ 100 nM

Question: With `Nc1nccc(-c2cccnc2Oc2ccc(Nc3nnc(-c4cccc(CCCO)c4)c4ccccc34)cc2)n1` [compound 344, 3-(3-(4-((4-((3-(2-amino-4-pyrimidinyl)-2-pyridinyl)oxy)phenyl)amino)-1-phthalazinyl)phenyl)-1-propanol] as the molecule, how does the IC50 (AuroraA-TPX2; given as class symbols) read?
Answer: ≤ 100 nM

Question: What about the IC50 (AuroraB; given as class symbols) of the same molecule?
Answer: ≤ 100 nM

Question: And the EC50 ([1]; given as class symbols)?
Answer: ≤ 100 nM

Question: How did the IC50 (AuroraA-TPX2; given as class symbols) turn out when `Cc1csc(-c2nnc(Nc3ccc(Oc4ncccc4-c4ccnc(N)c4)cc3)c3ccccc23)n1` [compound 345, 2-((4-((4-(4-methyl-1,3-thiazol-2-yl)-1-phthalazinyl)amino)phenyl)oxy)-3,4'-bipyridin-2'-amine] was run?
Answer: ≤ 100 nM

Question: And the IC50 (AuroraB; given as class symbols)?
Answer: ≤ 100 nM

Question: What about the EC50 ([1]; given as class symbols) of the same molecule?
Answer: 100 to 500 nM

Question: Which results are given for `CC(O)c1cccc(-c2nnc(Nc3ccc(Oc4ncccc4-c4ccnc(N)n4)cc3)c3ccccc23)c1` (stereo not drawn) [compound 346, 1-(3-(4-((4-((3-(2-amino-4-pyrimidinyl)-2-pyridinyl)oxy)phenyl)amino)-1-phthalazinyl)phenyl)ethanol]?
Answer: IC50 (AuroraA-TPX2; given as class symbols): ≤ 100 nM; IC50 (AuroraB; given as class symbols): ≤ 100 nM; EC50 ([1]; given as class symbols): 100 to 500 nM
